How the values were obtained:
Assay in all cases: relative viability (nuclei count vs DMSO), 5 days (fraction); higher = more cells survive
AT9283 + Palbociclib = compound: O=C(Nc1c[nH]nc1-c1nc2ccc(CN3CCOCC3)cc2[nH]1)NC1CC1 [AT9283] + CC(=O)c1c(C)c2cnc(Nc3ccc(N4CCNCC4)cn3)nc2n(C2CCCC2)c1=O [Palbociclib] (partner 0.5 µM)
Summary of the method: (§1)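 Relative viability divides the nuclei count in treated wells by that in vehicle wells. Lung cancer cell lines were seeded in 1536-well plates, dosed by pin tool the next day, and fixed and stained after 5 days in one step with final 0.05% Triton X-100, 1% formaldehyde and 1 ug/ml Hoechst. Dosing was a single drug or a fixed anchor-drug dose plus five library-drug doses (not always all listed) in √10 steps, and values are medians of duplicate plates imaged at 4×.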

AT9283 + Dasatinib = compound: O=C(Nc1c[nH]nc1-c1nc2ccc(CN3CCOCC3)cc2[nH]1)NC1CC1 [AT9283] + Cc1nc(Nc2ncc(C(=O)Nc3c(C)cccc3Cl)s2)cc(N2CCN(CCO)CC2)n1 [Dasatinib] (partner 0.075 µM)
Summary of the method: as §1

Erlotinib + Lapatinib = compound: C#Cc1cccc(Nc2ncnc3cc(OCCOC)c(OCCOC)cc23)c1 [Erlotinib] + CS(=O)(=O)CCNCc1ccc(-c2ccc3ncnc(Nc4ccc(OCc5cccc(F)c5)c(Cl)c4)c3c2)o1 [Lapatinib] (partner 2 µM)
Summary of the method: as §1

AT9283 + Trametinib = compound: O=C(Nc1c[nH]nc1-c1nc2ccc(CN3CCOCC3)cc2[nH]1)NC1CC1 [AT9283] + CC(=O)Nc1cccc(-n2c(=O)n(C3CC3)c(=O)c3c(Nc4ccc(I)cc4F)n(C)c(=O)c(C)c32)c1 [Trametinib] (partner 0.02 µM)
Summary of the method: as §1

Erlotinib + Trametinib = compound: C#Cc1cccc(Nc2ncnc3cc(OCCOC)c(OCCOC)cc23)c1 [Erlotinib] + CC(=O)Nc1cccc(-n2c(=O)n(C3CC3)c(=O)c3c(Nc4ccc(I)cc4F)n(C)c(=O)c(C)c32)c1 [Trametinib] (partner 0.02 µM)
Summary of the method: as §1

Cell Line	relative viability (AT9283 + Palbociclib; first compound 0.003 µM)	relative viability (AT9283 + Palbociclib; first compound 0.03 µM)	relative viability (AT9283 + Palbociclib; first compound 0.09487 µM)	relative viability (AT9283 + Palbociclib; first compound 0.3 µM)	relative viability (AT9283 + Dasatinib; first compound 0.003 µM)	relative viability (AT9283 + Dasatinib; first compound 0.03 µM)	relative viability (AT9283 + Dasatinib; first compound 0.09487 µM)	relative viability (AT9283 + Dasatinib; first compound 0.3 µM)	relative viability (Erlotinib + Lapatinib; first compound 0.02 µM)	relative viability (Erlotinib + Lapatinib; first compound 0.2 µM)	relative viability (Erlotinib + Lapatinib; first compound 0.6325 µM)	relative viability (Erlotinib + Lapatinib; first compound 2 µM)	relative viability (AT9283 + Trametinib; first compound 0.003 µM)	relative viability (AT9283 + Trametinib; first compound 0.03 µM)	relative viability (AT9283 + Trametinib; first compound 0.09487 µM)	relative viability (AT9283 + Trametinib; first compound 0.3 µM)	relative viability (Erlotinib + Trametinib; first compound 0.02 µM)	relative viability (Erlotinib + Trametinib; first compound 0.2 µM)	relative viability (Erlotinib + Trametinib; first compound 0.6325 µM)	relative viability (Erlotinib + Trametinib; first compound 2 µM)
HCC-78	0.473	0.476	0.396	0.347	0.291	0.322	0.201	0.216	0.737	0.742	0.696	0.701	0.794	0.745	0.353	0.222	0.768	0.524	0.683	0.58
NCI-H1648	0.247	0.262	0.242	0.297	–	–	–	–	–	–	–	–	0.404	0.563	0.333	0.336	0.5	0.313	0.348	0.289
EPLC-272H	0.306	0.355	0.276	0.241	0.342	0.307	0.106	0.103	0.923	1.1	1.24	0.763	0.285	0.287	0.161	0.152	0.322	0.282	0.282	0.207
A549	–	–	–	–	–	–	–	–	0.957	0.979	1.06	0.94	–	–	–	–	–	–	–	–
NCI-H1563	–	–	–	–	0.444	0.444	0.42	0.327	0.877	0.851	0.843	0.879	–	–	–	–	–	–	–	–
IA-LM	–	–	–	–	–	–	–	–	1.14	0.712	1.43	0.73	–	–	–	–	–	–	–	–
EBC-1	–	–	–	–	–	–	–	–	0.23	0.19	0.221	0.22	–	–	–	–	–	–	–	–
NCI-H1703	–	–	–	–	–	–	–	–	1.42	–	1.21	0.992	–	–	–	–	–	–	–	–
NCI-H2342	0.505	0.535	0.502	0.449	0.295	0.292	0.289	0.27	–	–	–	–	0.841	0.808	0.707	0.442	1.14	0.814	0.803	0.74
NCI-H596	–	–	–	–	0.59	0.597	0.565	0.297	–	1	0.998	1.01	0.76	0.868	0.566	0.635	0.745	0.75	0.886	0.751
SW 900	0.462	0.542	0.368	0.253	0.652	0.533	0.438	0.385	–	–	–	–	0.66	0.607	0.345	0.27	0.867	0.761	0.771	0.631
ChaGo-K-1	0.931	0.761	0.295	0.212	0.547	0.504	0.225	0.257	–	–	–	–	0.78	0.844	0.494	0.205	0.886	0.874	0.909	0.832
HCC-44	0.992	1	0.557	0.698	–	–	–	–	–	1.09	1.03	0.928	0.923	1.07	0.635	0.938	1.07	1.01	1.1	0.981
Calu-6	–	–	–	–	–	–	–	–	1.12	–	1.1	0.979	–	–	–	–	–	–	–	–
